Bridge positions count the residues as written; N and C are the ends. Square brackets hold non-standard residues; d marks the D form. Peptide text beside a SMILES is read from it. 2Nal = N[C@@H](Cc1ccc2ccccc2c1)C(=O)O; Cit = NC(=O)NCCC[C@H](N)C(=O)O
What was measured:
[1] = tested on: human red blood cells (hRBC); experiment: Hemolysis; format: cell-based
Procedure: The peptides were tested for their hemolytic activity against human red blood cells (hRBC). Fresh hRBC were washed three times with phosphate buffered saline (PBS) by centrifugation for 10 min at 2000×g. Peptides at a concentration of 100 μM were incubated with 20% v/v hRBC for 1 hour at 37° C. The final erythrocyte concentration was approximately 0.9×10^9 cells per ml. A value of 0% resp. 100% cell lysis was determined by incubation of the hRBC in the presence of PBS alone and respectively 0.1% Triton X-100 in H2O. The samples were centrifuged and the supernatant was 20-fold diluted in PBS buffer and the optical density (OD) of the sample at […] was measured. The 100% lyses value (OD540H2O) gave an OD540 of approximately 1.3-1.8. Percent hemolysis was calculated as follows: (OD540peptide/OD540H2O)×100%.

in vitro = conditions: human
CXCR4 = CXCR4 (Homo sapiens, UniProt P61073); experiment: Ca2+-assay method 2 (Flexstation, SDF-1 induced calcium mobilization); format: cell-based; design: expressed in transfected cells; host or cells: mouse pre-B cell line 300-19; conditions: method 2 (Ex. 54-160), mouse pre-B cell line 300-19 with human CXCR4, 10 nM SDF-1; read-out: IC50 (nM) Ca^2+ assay
Chain of CXCR4 (P61073 whole entry): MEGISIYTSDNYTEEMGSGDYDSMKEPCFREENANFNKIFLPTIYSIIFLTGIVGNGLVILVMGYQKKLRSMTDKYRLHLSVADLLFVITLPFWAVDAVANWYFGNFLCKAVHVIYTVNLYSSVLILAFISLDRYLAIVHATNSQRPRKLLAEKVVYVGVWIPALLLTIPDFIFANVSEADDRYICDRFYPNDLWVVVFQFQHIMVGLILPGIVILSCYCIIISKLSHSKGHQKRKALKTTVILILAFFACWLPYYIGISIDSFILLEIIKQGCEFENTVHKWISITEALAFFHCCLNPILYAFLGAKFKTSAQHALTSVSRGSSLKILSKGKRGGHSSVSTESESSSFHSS
Procedure: 2.2. Ca^2+-Assay: CXCR4-Antagonizing Activity of the Peptides.
The cells were batch loaded with the Calcium 3 Assay kit (Molecular Devices) in assay buffer (Hanks Balanced salt solution, HBSS, 20 mM HEPES, pH 7.4, 0.1% BSA) for 1 h at room temperature and then 200,000 labeled cells were dispensed into black 96 well assays plates (Costar No. 3603). A 20-fold concentrated solution of peptide in assay buffer was added to the cells and the whole plate was centrifuged to settle the cells to the bottom of the wells. Calcium mobilization induced by 10 nM stromal-derived factor-1 (SDF-1) was measured in the Flexstation 384 (excitation, 485 nM; emission, 525 nM) for 90 seconds. A maximal change in fluorescence response above baseline was used to calculate antagonist activity. The data for dose response curves (antagonist concentration versus % maximum response) were fitted to a four parameter logistic equation using SoftmaxPro 4.6 (Molecular Devices), from which IC50% values were calculated.
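Throughout, for GI50: MTT reduction read as absorbance at 595 nm, blank-corrected and expressed as percent growth relative to the time-zero cell reading, triplicate wells per concentration.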

Row | SMILES | Hemolysis at 100 μM [1] | GI50 at 48 h (in vitro) | IC50 (CXCR4)
1 | N=C(N)NCCC[C@@H]1NC(=O)[C@@H]2CSSC[C@H](NC(=O)[C@H](Cc3ccc4ccccc4c3)NC(=O)[C@H](CCCNC(=N)N)NC(=O)[C@H](Cc3ccc(O)cc3)NC(=O)[C@H]3CCCN3C(=O)CNC1=O)C(=O)N[C@@H](Cc1ccc(O)cc1)C(=O)N[C@@H](CCC(N)=O)C(=O)N[C@@H](CCCCN)C(=O)N1CCC[C@@H]1C(=O)N1CCC[C@H]1C(=O)N[C@@H](Cc1ccc(O)cc1)C(=O)N[C@@H](CCCNC(=N)N)C(=O)N[C@@H](CCCNC(N)=O)C(=O)N2 [Ex. 54] (cyclo(YR[Cit]CRG[dP]YR[2Nal]CYQK[dP]P); disulfide 4-11) | 0% | 54 µM | 6.9 nM
2 | N=C(N)NCCC[C@@H]1NC(=O)[C@@H]2CSSC[C@H](NC(=O)[C@H](Cc3ccc4ccccc4c3)NC(=O)[C@H](CCCNC(=N)N)NC(=O)[C@H](Cc3c[nH]c4ccccc34)NC(=O)[C@H]3CCCN3C(=O)CNC1=O)C(=O)N[C@@H](Cc1ccc(O)cc1)C(=O)N[C@@H](CCC(N)=O)C(=O)N[C@@H](CCCCN)C(=O)N1CCC[C@@H]1C(=O)N1CCC[C@H]1C(=O)N[C@@H](Cc1ccc(O)cc1)C(=O)N[C@@H](CCCNC(=N)N)C(=O)N[C@@H](CCCNC(N)=O)C(=O)N2 [Ex. 55] (cyclo(YR[Cit]CRG[dP]WR[2Nal]CYQK[dP]P); disulfide 4-11) | 0.1% | 43 µM | 6.3 nM
3 | N=C(N)NCCC[C@@H]1NC(=O)[C@@H]2CSSC[C@H](NC(=O)[C@H](Cc3ccc4ccccc4c3)NC(=O)[C@H](CCCNC(=N)N)NC(=O)[C@H](CCCNC(=N)N)NC(=O)[C@H]3CCCN3C(=O)CNC1=O)C(=O)N[C@@H](Cc1ccc(O)cc1)C(=O)N[C@@H](Cc1c[nH]cn1)C(=O)N[C@@H](CCCCN)C(=O)N1CCC[C@@H]1C(=O)N1CCC[C@H]1C(=O)N[C@@H](Cc1ccc(O)cc1)C(=O)N[C@@H](CCCNC(=N)N)C(=O)N[C@@H](CCCNC(N)=O)C(=O)N2 [Ex. 58] (cyclo(YR[Cit]CRG[dP]RR[2Nal]CYHK[dP]P); disulfide 4-11) | 0% | 18 µM | 10.5 nM
4 | N=C(N)NCCC[C@@H]1NC(=O)[C@@H]2CSSC[C@H](NC(=O)[C@H](Cc3ccc4ccccc4c3)NC(=O)[C@H](CCCNC(=N)N)NC(=O)[C@H](CCCNC(=N)N)NC(=O)[C@H]3CCCN3C(=O)CNC1=O)C(=O)N[C@@H](Cc1ccc(O)cc1)C(=O)N[C@@H](Cc1ccc(O)cc1)C(=O)N[C@@H](CCCCN)C(=O)N1CCC[C@@H]1C(=O)N1CCC[C@H]1C(=O)N[C@@H](Cc1ccc(O)cc1)C(=O)N[C@@H](CCCNC(=N)N)C(=O)N[C@@H](CCCNC(N)=O)C(=O)N2 [Ex. 59] (cyclo(YR[Cit]CRG[dP]RR[2Nal]CYYK[dP]P); disulfide 4-11) | 0.1% | 33 µM | 7.8 nM
5 | N=C(N)NCCC[C@@H]1NC(=O)[C@@H]2CSSC[C@H](NC(=O)[C@H](Cc3ccc4ccccc4c3)NC(=O)[C@H](CCCNC(=N)N)NC(=O)[C@H](CCCNC(=N)N)NC(=O)[C@H]3CCCN3C(=O)CNC1=O)C(=O)N[C@@H](Cc1ccc(O)cc1)C(=O)N[C@@H](CCC(N)=O)C(=O)N[C@@H](CCCCN)C(=O)N1CCC[C@@H]1C(=O)N1CCC[C@H]1C(=O)N[C@@H](CCC(N)=O)C(=O)N[C@@H](CCCNC(=N)N)C(=O)N[C@@H](CCCNC(N)=O)C(=O)N2 [Ex. 62] (cyclo(QR[Cit]CRG[dP]RR[2Nal]CYQK[dP]P); disulfide 4-11) | 0.1% | 65 µM | 1.8 nM
6 | N=C(N)NCCC[C@@H]1NC(=O)[C@@H]2CSSC[C@H](NC(=O)[C@H](Cc3ccc4ccccc4c3)NC(=O)[C@H](CCCNC(=N)N)NC(=O)[C@H](CCCNC(=N)N)NC(=O)[C@H]3CCCN3C(=O)CNC1=O)C(=O)N[C@@H](Cc1ccc(O)cc1)C(=O)N[C@@H](CCC(N)=O)C(=O)N[C@@H](CCCCN)C(=O)N1CCC[C@@H]1C(=O)N1CCC[C@H]1C(=O)N[C@@H](Cc1c[nH]cn1)C(=O)N[C@@H](CCCNC(=N)N)C(=O)N[C@@H](CCCNC(N)=O)C(=O)N2 [Ex. 64] (cyclo(HR[Cit]CRG[dP]RR[2Nal]CYQK[dP]P); disulfide 4-11) | 0.3% | 66 µM | 3.3 nM
7 | CC[C@H](C)[C@@H]1NC(=O)[C@@H]2CCCN2C(=O)[C@H]2CCCN2C(=O)[C@H](CCCCN)NC(=O)[C@H](CCC(N)=O)NC(=O)[C@H](Cc2ccc(O)cc2)NC(=O)[C@@H]2CSSC[C@H](NC(=O)[C@H](CCCNC(N)=O)NC(=O)[C@H](CCCNC(=N)N)NC1=O)C(=O)N[C@@H](CCCNC(=N)N)C(=O)NCC(=O)N1CCC[C@@H]1C(=O)N[C@@H](CCCNC(=N)N)C(=O)N[C@@H](CCCNC(=N)N)C(=O)N[C@@H](Cc1ccc3ccccc3c1)C(=O)N2 [Ex. 65] (cyclo(IR[Cit]CRG[dP]RR[2Nal]CYQK[dP]P); disulfide 4-11) | 0.2% | 65 µM | 3.9 nM
8 | N=C(N)NCCC[C@@H]1NC(=O)[C@@H]2CSSC[C@H](NC(=O)[C@H](Cc3ccc4ccccc4c3)NC(=O)[C@H](CCCNC(=N)N)NC(=O)[C@H](CCCNC(=N)N)NC(=O)[C@H]3CCCN3C(=O)CNC1=O)C(=O)N[C@@H](Cc1ccc(O)cc1)C(=O)N[C@@H](CCC(N)=O)C(=O)N[C@@H](CCCCN)C(=O)N1CCC[C@@H]1C(=O)N1CCC[C@H]1C(=O)N[C@@H](Cc1c[nH]c3ccccc13)C(=O)N[C@@H](CCCNC(=N)N)C(=O)N[C@@H](CCCNC(N)=O)C(=O)N2 [Ex. 66] (cyclo(WR[Cit]CRG[dP]RR[2Nal]CYQK[dP]P); disulfide 4-11) | 0% | 46 µM | 3.8 nM
9 | C[C@@H](O)[C@@H]1NC(=O)[C@@H]2CCCN2C(=O)[C@H]2CCCN2C(=O)[C@H](CCCCN)NC(=O)[C@H](CCC(N)=O)NC(=O)[C@H](Cc2ccc(O)cc2)NC(=O)[C@@H]2CSSC[C@H](NC(=O)[C@H](CCCNC(N)=O)NC(=O)[C@H](CCCNC(=N)N)NC1=O)C(=O)N[C@@H](CCCNC(=N)N)C(=O)NCC(=O)N1CCC[C@@H]1C(=O)N[C@@H](CCCNC(=N)N)C(=O)N[C@@H](CCCNC(=N)N)C(=O)N[C@@H](Cc1ccc3ccccc3c1)C(=O)N2 [Ex. 67] (cyclo(TR[Cit]CRG[dP]RR[2Nal]CYQK[dP]P); disulfide 4-11) | 0.2% | 49 µM | 2.4 nM
10 | N=C(N)NCCC[C@@H]1NC(=O)[C@@H]2CSSC[C@H](NC(=O)[C@H](Cc3ccc4ccccc4c3)NC(=O)[C@H](CCCNC(=N)N)NC(=O)[C@H](CCCNC(=N)N)NC(=O)[C@H]3CCCN3C(=O)CNC1=O)C(=O)N[C@@H](Cc1ccc(O)cc1)C(=O)N[C@@H](CCC(N)=O)C(=O)N[C@@H](CCCCN)C(=O)N1CCC[C@@H]1C(=O)N1CCC[C@H]1C(=O)N[C@@H](Cc1ccc(O)cc1)C(=O)N[C@@H](CCCNC(=N)N)C(=O)N[C@@H](CCCNC(=N)N)C(=O)N2 [Ex. 69] (cyclo(YRRCRG[dP]RR[2Nal]CYQK[dP]P); disulfide 4-11) | 0.1% | 49 µM | 1.8 nM
11 | N=C(N)NCCC[C@@H]1NC(=O)[C@@H]2CSSC[C@H](NC(=O)[C@H](Cc3ccc4ccccc4c3)NC(=O)[C@H](CCCNC(=N)N)NC(=O)[C@H](CCCNC(=N)N)NC(=O)[C@H]3CCCN3C(=O)CNC1=O)C(=O)N[C@@H](Cc1ccc(O)cc1)C(=O)N[C@@H](CCC(N)=O)C(=O)N[C@@H](CCCCN)C(=O)N1CCC[C@@H]1C(=O)N1CCC[C@H]1C(=O)N[C@@H](Cc1ccc(O)cc1)C(=O)N[C@@H](CCCNC(=N)N)C(=O)N[C@@H](Cc1c[nH]cn1)C(=O)N2 [Ex. 70] (cyclo(YRHCRG[dP]RR[2Nal]CYQK[dP]P); disulfide 4-11) | 0.2% | 40 µM | 19.5 nM

Reference: patent publication US8895695B2, “Template-fixed beta-hairpin peptidomimetics with CXCR4 antagonizing activity” (priority 2003, dated 2014)
